Source: PubChem BioAssay AID2060484 (Molecular Pharmacology Branch, DTP, NCI, 2025)
pIC50: −log10 of the molar value. Where “and” joins values, the source holds several entries; their conditions need not be identical. Equal values may be shown once.

System: SUM149PT spheroids with HUVEC/MSC, viability
Experiment: Anticancer human tumor SUM149PT cell line growth inhibition [GQUAD];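 further: spheroids exposed to drugs for seven days before readout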;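 on viability, T/C: percent viability relative to DMSO vehicle control taken as 100%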
Details: for viability, T/C: stronger effect = lower value
Source text: DNA G-quadruplex Stabilizer Agents in Combinations in Complex Spheroids
A high-throughput screen of multi-cell type tumor spheroids was designed to identify active combinations of DNA G-quadruplex stabilizer agents and targeted small molecules. Complex spheroids include a stromal component modeled by human endothelial cells (HUVEC) and fibroblasts modeled by human mesenchymal stem cells (MSCs). The concentration ranges selected for each drug and investigational agent were based upon clinically achievable concentrations if the clinical Cmax of the agent was known.
Compounds. The drugs and investigational agents: pidnarulex (CX-5461; NSC782164), APTO-253 (NSC789042), BRACO-19 (NSC847499), peposertib (NSC802822), ceralasertib (NSC780249), elimusertib (NSC800525), camonsertib (NSC841442), AZD-1390 (NSC803789), olaparib (NSC753686), talazoparib (NSC767125), ART-558 (NSC835418), sotorasib (NSC818433), MRTX-1133 (NSC836407), SN-38 (NSC673596), topotecan (NSC609699), etoposide (NSC141540), doxorubicin (NSC123127), gemcitabine (NSC613327), 5-fluorouracil (NSC19893), paclitaxel (NSC125973), vemurafenib (NSC761431), panobinostat (NSC761190), R-306465 (JNJ-16241199; NSC773264), adavosertib (NSC754352), TP-3654 (NSC805149), carboplatin (NSC241240), KSQ-4279 (NSC840948), and staurosporine (NSC755774) were obtained from the National Cancer Institute (NCI) Developmental Therapeutics Program Chemical Repository (34). The FDA-approved anticancer drug set is available from the NCI Developmental Therapeutics Program. […] The stock solutions were prepared in dimethyl sulfoxide (DMSO, Sigma-Aldrich, St. Louis, MO, cat. D2650) at 800-fold the tested concentration and stored at -70 degrees C prior to their use. All drugs and investigational agents were tested over a range starting from a high concentration at or near the clinical Cmax and decreasing in half-log increments. If the clinical Cmax for an agent had not been determined, the highest concentration tested was 10 microM.
2.3 Cell Culture. All cells were maintained in an incubator at 37 degrees C and 5% CO2 with 95% humidity. The PDC lines were cultured according to standard operating procedures established by the NCI PDMR. All PDCs were thawed and cultured in Matrigel-coated flasks prepared with a working solution of 1X Ham's F-12 nutrient mix, without supplementation (Invitrogen, cat. 11765054), 100 U/mL penicillin-streptomycin (Invitrogen, cat. 15140122), and 2.5% Matrigel (Corning Inc., cat. 354248) for the first three passages. The 857933-349-R-J2-PDC line was cultured in 6C/Colon 1B media, which includes advanced DMEM/F-12 (Thermo Fisher Scientific, cat. 12634028), 10 mM HEPES (Thermo Fisher Scientific, cat. 15630080), 1X GlutaMAX supplement (Thermo Fisher Scientific, cat. 35050061), 0.1 mg/mL primocin (InvivoGen, cat. ant-pm-2), 10% defined fetal bovine serum, heat inactivated (HyClone Laboratories Inc., cat. SH30070.03HI), 50% L-WRN conditioned media (ATCC, cat. CRL-3276), 1.25 mM N-Acetyl-L-cysteine (Sigma-Aldrich, cat. A9165), 10 mM nicotinamide (Sigma-Aldrich, cat. N0636), 1X B-27 supplement (Thermo Fisher Scientific, cat. 17504044), 1X N-2 supplement (Thermo Fisher Scientific, cat. 17502048), 10 microM Y-27632 dihydrochloride (Tocris Bioscience, cat. 1254), and 50 ng/mL human EGF recombinant protein (Thermo Fisher Scientific, cat. PHG0311). The 485176-168-R4-J1-PDC line was cultured in Panc media, which includes all 6C/Colon 1B media components plus 100 ng/mL human FGF-10 (Thermo Fisher Scientific, cat. 100-26), 500 nM SB-431542 (Selleckchem, cat. S1067), and gastrin (Tocris, cat. 3006).
[…]

[1] = curve of first compound, second compound 0.0316 µM
[2] = curve of first compound, second compound 0.1 µM
[3] = curve of first compound, second compound 0.316 µM
[4] = curve of first compound, second compound 1 µM
[5] = curve of first compound, second compound 3.16 µM
[6] = curve of first compound, second compound 10 µM
[7] = second compound 0.0316 µM, first compound 0.000999 µM
[8] = second compound 0.0316 µM, first compound 0.00316 µM
[9] = second compound 0.0316 µM, first compound 0.00999 µM
[10] = second compound 0.0316 µM, first compound 0.0316 µM
[11] = second compound 0.0316 µM, first compound 0.0999 µM
[12] = second compound 0.0316 µM, first compound 0.316 µM
[13] = second compound 0.1 µM, first compound 0.000999 µM
[14] = second compound 0.1 µM, first compound 0.00316 µM
[15] = second compound 0.1 µM, first compound 0.00999 µM
[16] = second compound 0.1 µM, first compound 0.0316 µM
[17] = second compound 0.1 µM, first compound 0.0999 µM
[18] = second compound 0.1 µM, first compound 0.316 µM
[19] = second compound 0.316 µM, first compound 0.000999 µM
[20] = second compound 0.316 µM, first compound 0.00316 µM
[21] = second compound 0.316 µM, first compound 0.00999 µM
[22] = second compound 0.316 µM, first compound 0.0316 µM
[23] = second compound 0.316 µM, first compound 0.0999 µM
[24] = second compound 0.316 µM, first compound 0.316 µM
[25] = second compound 1 µM, first compound 0.000999 µM
[26] = second compound 1 µM, first compound 0.00316 µM
[27] = second compound 1 µM, first compound 0.00999 µM
[28] = second compound 1 µM, first compound 0.0316 µM
[29] = second compound 1 µM, first compound 0.0999 µM
[30] = second compound 1 µM, first compound 0.316 µM
[31] = second compound 3.16 µM, first compound 0.000999 µM
[32] = second compound 3.16 µM, first compound 0.00316 µM
[33] = second compound 3.16 µM, first compound 0.00999 µM
[34] = second compound 3.16 µM, first compound 0.0316 µM
[35] = second compound 3.16 µM, first compound 0.0999 µM
[36] = second compound 3.16 µM, first compound 0.316 µM
[37] = second compound 10 µM, first compound 0.000999 µM
[38] = second compound 10 µM, first compound 0.00316 µM
[39] = second compound 10 µM, first compound 0.00999 µM
[40] = second compound 10 µM, first compound 0.0316 µM
[41] = second compound 10 µM, first compound 0.0999 µM
[42] = second compound 10 µM, first compound 0.316 µM

For CC[C@@]1(O)C(=O)OCc2c1cc1n(c2=O)Cc2cc3c(CN(C)C)c(O)ccc3nc2-1 + Cc1cnc(CNC(=O)c2c(=O)c3ccc(N4CCCN(C)CC4)nc3n3c2sc2ccccc23)cn1, the pIC50 [1] was 7.58, the pIC50 [2] was 7.73 and the pIC50 [3] was 7.83. The pIC50 [4] was over 9.00, the pIC50 [5] was over 9.00 and the pIC50 [6] was over 9.00. For the same compound, the viability, T/C [7] was 90.4%, the viability, T/C [8] was 71.8% and the viability, T/C [9] was 77.7%. The viability, T/C [10] was 44.9%, the viability, T/C [11] was 36.1% and the viability, T/C [12] was 40.4%. It also gave a viability, T/C [13] of 60.9%, a viability, T/C [14] of 66.8% and a viability, T/C [15] of 56.8%. It also gave a viability, T/C [16] of 43.5%, a viability, T/C [17] of 44.7% and a viability, T/C [18] of 44.6%. For the same compound, the viability, T/C [19] was 48.5%, the viability, T/C [20] was 58.3% and the viability, T/C [21] was 55.1%. It also gave a viability, T/C [22] of 38.9%, a viability, T/C [23] of 42% and a viability, T/C [24] of 45.1%. The viability, T/C [25] was 38.5%, the viability, T/C [26] was 44.6% and the viability, T/C [27] was 45.5%. For the same compound, the viability, T/C [28] was 41.5%, the viability, T/C [29] was 37.4% and the viability, T/C [30] was 39.3%. It also gave a viability, T/C [31] of 38.5%, a viability, T/C [32] of 38% and a viability, T/C [33] of 40.4%. For the same compound, the viability, T/C [34] was 37.1%, the viability, T/C [35] was 36.3% and the viability, T/C [36] was 35.1%. The viability, T/C [37] was 0.4%, the viability, T/C [38] was 11.1% and the viability, T/C [39] was 9.79%. The viability, T/C [40] was 11.4%, the viability, T/C [41] was 2.25% and the viability, T/C [42] was 2.23%.
C=CCn1c(=O)c2cnc(Nc3ccc(N4CCN(C)CC4)cc3)nc2n1-c1cccc(C(C)(C)O)n1 was tested, and the viability, T/C (compound 0.0316 µM) was 98.3% and 95.2% and 87.7%, the viability, T/C (compound 0.1 µM) was 73% and 67% and 53.4% and the viability, T/C (compound 0.316 µM) was 32% and 32.6% and 26.9%. For the same compound, the viability, T/C (compound 1 µM) was 20.9% and 19.1% and 16.4%, the viability, T/C (compound 3.16 µM) was 12.8% and 11.1% and 8.08% and the viability, T/C (compound 10 µM) was 8.94% and 7.14% and 6.33%. The pIC50 (curve of compound) was 6.71 and 6.74 and 6.94.
In the case of Cn1ncnc1[C@H]1c2n[nH]c(=O)c3cc(F)cc(c23)N[C@@H]1c1ccc(F)cc1 + CN(C)c1ccc(Nc2c3ccc(NC(=O)CCN4CCCC4)cc3nc3cc(NC(=O)CCN4CCCC4)ccc23)cc1, the pIC50 [1] was under 6.50, the pIC50 [2] was under 6.50 and the pIC50 [3] was under 6.50. For the same compound, the pIC50 [4] was under 6.50, the pIC50 [5] was under 6.50 and the pIC50 [6] was under 6.50. It also gave a viability, T/C [7] of 110%, a viability, T/C [8] of 91.4% and a viability, T/C [9] of 94.5%. It also gave a viability, T/C [10] of 92.1%, a viability, T/C [11] of 91.9% and a viability, T/C [12] of 69.4%. For the same compound, the viability, T/C [13] was 95%, the viability, T/C [14] was 99.5% and the viability, T/C [15] was 91.5%. It also gave a viability, T/C [16] of 89.5%, a viability, T/C [17] of 92.4% and a viability, T/C [18] of 66.6%. For the same compound, the viability, T/C [19] was 96%, the viability, T/C [20] was 83.4% and the viability, T/C [21] was 98.1%. For the same compound, the viability, T/C [22] was 78.2%, the viability, T/C [23] was 81.1% and the viability, T/C [24] was 64.9%. The viability, T/C [25] was 87.6%, the viability, T/C [26] was 88.1% and the viability, T/C [27] was 77%. The viability, T/C [28] was 81.5%, the viability, T/C [29] was 81.2% and the viability, T/C [30] was 56.7%. The viability, T/C [31] was 79.3%, the viability, T/C [32] was 89% and the viability, T/C [33] was 80.3%. The viability, T/C [34] was 80.8%, the viability, T/C [35] was 73.8% and the viability, T/C [36] was 56%. It also gave a viability, T/C [37] of 88.9%, a viability, T/C [38] of 79% and a viability, T/C [39] of 72.2%. The viability, T/C [40] was 83.5%, the viability, T/C [41] was 74.2% and the viability, T/C [42] was 52.3%.
In the case of CC1COCCN1c1cc(-c2ccnn2C)c2ccnc(-c3ccn[nH]3)c2n1 (stereo not drawn), the viability, T/C (compound 0.0316 µM) was 98.3% and 92.2% and 83.5%, the viability, T/C (compound 0.1 µM) was 55.4% and 45.4% and 34.2% and the viability, T/C (compound 0.316 µM) was 26% and 26.5% and 18%. For the same compound, the viability, T/C (compound 1 µM) was 19.7% and 28.9% and 18.2%, the viability, T/C (compound 3.16 µM) was 25.6% and 25.3% and 21.7% and the viability, T/C (compound 10 µM) was 30% and 31.4% and 23.9%. For the same compound, the pIC50 (curve of compound) was 6.91 and 7.05 and 7.16.
